Results reported in patent US8093231B2, “Sulfonylethyl phosphorodiamidates” (Telik, Inc., priority 2004, dated 2012).
Like-named read-outs stand apart in the source and are kept apart here.

Legend:
Format in all cases: cell-based, human
[1] = test system: LNCap (prostate carcinoma); assay: Cytotoxicity/growth inhibition assay, LNCap; conditions: read-out: IC50 (LNCap)
From the text: (§1) The human cancer cell lines DLD-1 (colorectal adenocarcinoma), LNCap (prostate carcinoma), and OVCAR-3 (ovarian carcinoma) were obtained from the American Type Culture Collection, Manassas, Va., U.S.A., and HL-60 (promyeloid myelocytic leukemia), MX-1 (breast carcinoma), P388, and P388ADR from the National Cancer Institute, Bethesda, Md., U.S.A. Carboplatin, doxorubicin, and melphalan were obtained from Sigma-Aldrich Chemical Company, St. Louis, Mo., U.S.A. The CellTiter-Glo assay kit was obtained from Promega Corporation, Madison, Wis., U.S.A., and the Cellular DNA Cytometric Analysis Reagent Kit from Roche Diagnostics Corporation, Indianapolis, Ind., U.S.A. Lambda DNA was obtained from New England Biolabs, Beverly, Mass., U.S.A., and SYBR-Gold from Molecular Probes, Inc., Eugene, Oreg., U.S.A. The DNeasy Tissue Kit was obtained from Qiagen Inc., Valencia, Calif., U.S.A., and AmpliTaq Gold DNA polymerase and PCR reagents from Applied Biosystems, Foster City, Calif., U.S.A. All products were used in accordance with manufacturer's directions. All assays were conducted in triplicate wells, with dimethyl sulfoxide (DMSO) solvent control. The extent of cell growth was expressed as a percentage of the signal from the solvent control wells.
(§2) Log-phase cells were trypsinized, collected by centrifugation, and resuspended in a small volume of fresh medium, and the density of viable cells was determined following Trypan Blue staining. Cells were diluted in fresh media (3×10^3 cells/mL for MX-1, 3×10^3 cells/mL for DLD-1, and 6×10^3 cells/mL for LNCap cells), the test compounds (concentrations between 0.1 and 200 μM, dissolved in DMSO, 50 μL) added immediately after dilution to achieve a final DMSO concentration of 0.5%, then the suspensions added at 150 μL/well to 96-well plates, and incubated for several hours to allow attachment in the case of adherent cells. The cells were cultured for approximately three doubling times (3 days for MX-1 and 4 days for DLD-1 and LNCap). The cells were then collected by centrifugation, and 100 μL of the culture supernatant was replaced by the CellTiter-Glo reagent. After incubation for 15 minutes at room temperature, and the plate was read with a luminometer.

MX-1 (breast carcinoma) = assay: Cytotoxicity/growth inhibition assay, MX-1; conditions: read-out: IC50 (MX-1)
From the text: as §1, §2

[2] = test system: DLD-1 (colorectal adenocarcinoma); assay: Cytotoxicity/growth inhibition assay, DLD-1; conditions: read-out: IC50 (DLD-1)
From the text: as §1, §2

[3] = LNCap cells, 4 days culture, CellTiter-Glo, 0.1-200 μM tested
[4] = MX-1 cells, 3 days culture, CellTiter-Glo, 0.1-200 μM tested
[5] = DLD-1 cells, 4 days culture, CellTiter-Glo, 0.1-200 μM tested

| SMILES | IC50 [1, 3] | IC50 (MX-1 (breast carcinoma); [4]) | IC50 [2, 5] | IC50 ([1]; Homo sapiens, LNCaP, 96 h) | IC50 (MX-1 (breast carcinoma); Homo sapiens, MX1, 72 h) | IC50 ([2]; Homo sapiens, DLD-1, 96 h) |
| --- | --- | --- | --- | --- | --- | --- |
| O=C(NCCO)c1ccc(CS(=O)(=O)CCOP(=O)(N(CCCl)CCCl)N(CCCl)CCCl)cc1 [Compound 160A] | 104 µM | 33.2 µM | 13.9 µM |  |  |  |
| Cc1cccc(S(=O)(=O)CCOP(=O)(N(CCCl)CCCl)N(CCCl)CCCl)c1 [Compound 110A] | 20.5 µM | 2.7 µM | 1.3 µM |  |  |  |
| O=P(OCCS(=O)(=O)CCO)(N(CCCl)CCCl)N(CCCl)CCCl [Compound 16A] | 36.4 µM | 13 µM | 9.6 µM |  |  |  |
| O=C(O)[C@H](CS(=O)(=O)CCOP(=O)(N(CCCl)CCCl)N(CCCl)CCCl)NS(=O)(=O)c1ccc(Cl)cc1 [Compound 105A] | ≥ 200 µM | 31.6 µM | 23.1 µM |  |  |  |
| O=C(O)CCC(=O)Nc1cccc(CS(=O)(=O)CCOP(=O)(N(CCCl)CCCl)N(CCCl)CCCl)c1 [Compound 142A] | 114 µM | 22.5 µM | 18.1 µM |  |  |  |
| O=P(OCCS(=O)(=O)Cc1ccccc1Cl)(N(CCCl)CCCl)N(CCCl)CCCl [Compound 136A] | 21.4 µM | 2.8 µM | 1.7 µM |  |  |  |
| O=P(OCCS(=O)(=O)c1ccc(-c2ccccc2)cc1)(N(CCCl)CCCl)N(CCCl)CCCl [Compound 113A] | 18.4 µM | 10.9 µM | 2.2 µM |  |  |  |
| O=P(OCCS(=O)(=O)c1cccc(S(=O)(=O)CCOP(=O)(N(CCCl)CCCl)N(CCCl)CCCl)c1)(N(CCCl)CCCl)N(CCCl)CCCl [Compound 11B] | 4.5 µM | 3 µM | 2.1 µM |  |  |  |
| O=P(OCCS(=O)(=O)c1cccc2c(S(=O)(=O)CCOP(=O)(N(CCCl)CCCl)N(CCCl)CCCl)cccc12)(N(CCCl)CCCl)N(CCCl)CCCl [Compound 23B, 1,5-di[[2-[[bis[bis(2-chloroethyl)amino]phosphinyl]oxy]ethyl]sulfonyl]naphthalene] |  |  |  | 3.8 µM | 1.1 µM | 0.7 µM |
| COC(=O)[C@H](CS(=O)(=O)CCOP(=O)(N(CCCl)CCCl)N(CCCl)CCCl)NS(=O)(=O)c1ccc(Cl)cc1 [Compound 81A] | 86.6 µM | 33.3 µM | 6.9 µM |  |  |  |
| O=P(OCCS(=O)(=O)c1ncnc2[nH]cnc12)(N(CCCl)CCCl)N(CCCl)CCCl [Compound 125A] | 45.1 µM | 22.5 µM | 7.8 µM |  |  |  |
| Cc1ccc(CS(=O)(=O)CCOP(=O)(N(CCCl)CCCl)N(CCCl)CCCl)cc1 [Compound 130A] | 22 µM | 6.5 µM | 5.1 µM |  |  |  |
| O=P(OCCS(=O)(=O)c1ccc(S(=O)(=O)CCOP(=O)(N(CCCl)CCCl)N(CCCl)CCCl)cc1)(N(CCCl)CCCl)N(CCCl)CCCl [Compound 12B] | 7.1 µM | 4.3 µM | 1.9 µM |  |  |  |
| O=[N+]([O-])c1cccc(CS(=O)(=O)CCOP(=O)(N(CCCl)CCCl)N(CCCl)CCCl)c1 [Compound 138A] | 12 µM | 16.8 µM | 1.8 µM |  |  |  |
| CC(C)NC(=O)[C@H](CS(=O)(=O)CCOP(=O)(N(CCCl)CCCl)N(CCCl)CCCl)NS(C)(=O)=O [Compound 97A] | 57.8 µM | 26.8 µM | 8.5 µM |  |  |  |
| N[C@@H](CS(=O)(=O)CCOP(=O)(N(CCCl)CCCl)N(CCCl)CCCl)C(=O)N1CCOCC1 [Compound 87A] | 136 µM | 19.5 µM | 9.7 µM |  |  |  |
| O=P(OCCS(=O)(=O)C1CCCCC1)(N(CCCl)CCCl)N(CCCl)CCCl [Compound 11A] | 18.1 µM | 10.4 µM | 4 µM |  |  |  |
| O=C(CS(=O)(=O)CCOP(=O)(N(CCCl)CCCl)N(CCCl)CCCl)N1CCN(Cc2ccccc2)CC1 [Compound 19A] | 17.8 µM | 14.8 µM | 8.1 µM |  |  |  |
| O=C(O)CS(=O)(=O)CCOP(=O)(N(CCCl)CCCl)N(CCCl)CCCl [Compound 14A, 2-[[2-[[bis[bis(2-chloroethyl)amino]phosphinyl]oxy]-ethyl]sulfonyl]acetic acid] |  |  |  | ≥ 200 µM | 62.2 µM | 17.6 µM |
| CC(C)NC(=O)[C@H](CS(=O)(=O)CCOP(=O)(N(CCCl)CCCl)N(CCCl)CCCl)NS(=O)(=O)c1ccc(C#N)cc1 [Compound 101A] | 57 µM | 14.8 µM | 7.2 µM |  |  |  |
| O=C(c1ccc(CS(=O)(=O)CCOP(=O)(N(CCCl)CCCl)N(CCCl)CCCl)cc1)N1CCN(Cc2ccccc2)CC1 [Compound 177A] | 21.1 µM | 8.8 µM | 4.5 µM |  |  |  |

| SMILES | IC50 [1, 3] | IC50 (MX-1 (breast carcinoma); [4]) | IC50 [2, 5] | IC50 ([1]; Homo sapiens, LNCaP, 96 h) | IC50 (MX-1 (breast carcinoma); Homo sapiens, MX1, 72 h) | IC50 ([2]; Homo sapiens, DLD-1, 96 h) |
| --- | --- | --- | --- | --- | --- | --- |
| CN(CCO)C(=O)c1ccc(CS(=O)(=O)CCOP(=O)(N(CCCl)CCCl)N(CCCl)CCCl)cc1 [Compound 158A] | 85.2 µM | 35.4 µM | 17.5 µM |  |  |  |
| CC(=O)N[C@@H](CS(=O)(=O)CCOP(=O)(N(CCCl)CCCl)N(CCCl)CCCl)C(=O)O [Compound 73A] | 73.2 µM | 29.6 µM | 18 µM |  |  |  |
| O=C(c1ccc(CS(=O)(=O)CCOP(=O)(N(CCCl)CCCl)N(CCCl)CCCl)cc1)N1CCCC1 [Compound 156A] | 31.4 µM | 4.8 µM | 3.5 µM |  |  |  |
| O=C(O)c1ccc(CS(=O)(=O)CCOP(=O)(N(CCCl)CCCl)N(CCCl)CCCl)cc1 [Compound 139A] | 82.1 µM | 25.3 µM | 9.3 µM |  |  |  |
| NCC(=O)Nc1cccc(CS(=O)(=O)CCOP(=O)(N(CCCl)CCCl)N(CCCl)CCCl)c1 [Compound 143A] | 110 µM | 15.9 µM | 10.9 µM |  |  |  |
| CC(C)CS(=O)(=O)CCOP(=O)(N(CCCl)CCCl)N(CCCl)CCCl [Compound 6A] | 17.7 µM | 4.6 µM | 6.8 µM |  |  |  |
| O=C(c1ccc(CS(=O)(=O)CCOP(=O)(N(CCCl)CCCl)N(CCCl)CCCl)cc1)N1CCC(O)CC1 [Compound 166A] | 90.2 µM | 20.5 µM | 6.3 µM |  |  |  |
| O=P(OCCS(=O)(=O)c1ccccc1Cl)(N(CCCl)CCCl)N(CCCl)CCCl [Compound 106A] | 18.3 µM | 4.2 µM | 3.7 µM |  |  |  |
| CC(C)(C(N)C(=O)O)S(=O)(=O)CCOP(=O)(N(CCCl)CCCl)N(CCCl)CCCl (stereo not drawn) [Compound 76A] | 99.7 µM | 23.2 µM | 6.6 µM |  |  |  |
| O=C(CS(=O)(=O)CCOP(=O)(N(CCCl)CCCl)N(CCCl)CCCl)Nc1ccc(C(=O)O)cc1 [Compound 33A] | 98.6 µM | 20.6 µM | 8.6 µM |  |  |  |
| CC(C)(C)OC(=O)NCCCC[C@H](NC(=O)CS(=O)(=O)CCOP(=O)(N(CCCl)CCCl)N(CCCl)CCCl)C(=O)OC(C)(C)C [Compound 27A] | 15.5 µM | 6.2 µM | 3.6 µM |  |  |  |
| O=P(OCCS(=O)(=O)CCCCCCCCS(=O)(=O)CCOP(=O)(N(CCCl)CCCl)N(CCCl)CCCl)(N(CCCl)CCCl)N(CCCl)CCCl [Compound 7B] | 9.5 µM | 1.9 µM | 1.5 µM |  |  |  |
| CCCCCCCCS(=O)(=O)CCOP(=O)(N(CCCl)CCCl)N(CCCl)CCCl [Compound 12A] | 14.1 µM | 13.9 µM | 3.5 µM |  |  |  |
| CC(C)(C)OC(=O)[C@@H](Cc1ccccc1)NC(=O)CS(=O)(=O)CCOP(=O)(N(CCCl)CCCl)N(CCCl)CCCl [Compound 25A] | 18.9 µM | 5.6 µM | 3.7 µM |  |  |  |
| NC(=O)C(CC(=O)O)NC(=O)CS(=O)(=O)CCOP(=O)(N(CCCl)CCCl)N(CCCl)CCCl (stereo not drawn) [Compound 61A] |  | 30.9 µM | 20 µM |  |  |  |
| CCNC(=O)CS(=O)(=O)CCOP(=O)(N(CCCl)CCCl)N(CCCl)CCCl [Compound 50A] |  | 17.1 µM | 11.9 µM |  |  |  |
| O=C(CS(=O)(=O)CCOP(=O)(N(CCCl)CCCl)N(CCCl)CCCl)N1CCOCC1 [Compound 51A] |  | 6.9 µM | 6.7 µM |  |  |  |
| O=C(CS(=O)(=O)CCOP(=O)(N(CCCl)CCCl)N(CCCl)CCCl)N1CCC(O)CC1 [Compound 52A] |  | 15.6 µM | 10.2 µM |  |  |  |
| O=C(CCS(=O)(=O)CCOP(=O)(N(CCCl)CCCl)N(CCCl)CCCl)N1CCOCC1 [Compound 58A] |  | 17 µM | 12.9 µM |  |  |  |
| O=C(CCS(=O)(=O)CCOP(=O)(N(CCCl)CCCl)N(CCCl)CCCl)NC1CC1 [Compound 55A] |  | 14.7 µM | 10.1 µM |  |  |  |
